The test relates to A375 human melanoma cells. Kind of test: A375 human melanoma xenograft in athymic nude mice: tumor volume and survival. The class given is in vivo. In general terms: A xenograft is tissue or cells of one species grown in another, often human tumour cells in immunodeficient mice.

Excerpt: Data is represented as tumor volume in mm^3.
Survival was again assessed at day 40.

For bevacizumab, under “12 mg/kg BEV alone, 1.2 mg/kg BEV pretreatment before AB160”, the “therapeutic effect in the experiment (in words)” value is on record as “not therapeutic”. For the same substance, under “day 15 post treatment, 12 mg/kg BEV, 30 mg/kg ABX, AB160, or 1.2 mg/kg BEV 24 hr before AB160”, the “Percent Alive on day 15” value turned out to be 0%. In addition, the median survival (survival assessed at day 40) is listed as 7 days.

These data come from US11660339B2, “Methods of treating cancer using compositions of antibodies and carrier proteins with antibody pretreatment” (Mayo Foundation for Medical Education and Research, priority 2015, dated 2023).
